Measurements: paper PMC8567874, “Metronomic delivery of orally available pemetrexed-incorporated colloidal dispersions for boosting tumor-specific immunity” (Drug Delivery, 2021)
Where two headings read alike, the source gives them in different places.

How the values were obtained:
[1] = test system: CT26.CL25 tumor-bearing mice; assay type: in vivo; conditions: 27 days after drug treatment, IV 150 mg/kg PMX
Description: To investigate the antitumor efficacy of oral PMX/DL(1:1)-CD and IV PMX given in combination with intraperitoneal aPD-1, 1 × 10^6 of CT26.CL25 cells in 100 µL of PBS (pH 7.4) were subcutaneously inoculated into each BALB/c mouse. When the average tumor volume reached 50–70 mm^3, mice were randomly divided into seven groups (10 mice per group): control (untreated), PMX-IV (150) (IV administration of 150 mg/kg PMX once every 3 weeks), aPD-1 (10) (intraperitoneal administration of 10 mg/kg aPD-1 once every 3 days), PMX-Oral (20) (once-daily oral administration equivalent to 20 mg/kg PMX), PMX/DL-CD (20) [once-daily oral administration PMX/DL(1:1)-CD equivalent to 20 mg/kg PMX], PMX-IV (150) + aPD-1 (10) (combination of IV administration of 150 mg/kg PMX once every 3 weeks, and intraperitoneal administration of 10 mg/kg aPD-1 once every 3 days), and PMX/DL-CD (20) + aPD-1 (10) (a combination of once-daily oral administration of PMX/DL(1:1)-CD equivalent to 20 mg/kg PMX and intraperitoneal administration of 10 mg/kg aPD-1 once every 3 days). During treatments, body weights and tumor volumes of mice in all seven groups were monitored once every 3 days, for 27 days. Tumor volumes in each mouse were calculated based on the following formula: 0.52 × a^2 × b, where a and b were the tumor widths and lengths, respectively.

[2] = In situ single-pass rat intestinal perfusion; assay type: in vivo; conditions: other: in situ single-pass intestinal perfusion; for concentration at 15 min / concentration at 30 min / concentration at 45 min / concentration at 60 min / concentration at 75 min / concentration at 90 min / concentration at 105 min / concentration at 120 min: rat, outlet intestinal perfusate, 100 μg/mL, rat intestinal perfusion
Description: The in situ single-pass intestinal effective permeabilities (Peff) of PMX, PMX/DL(1:1), PMX/DL(1:2), PMX/DL(1:1)-CD, and PMX/DL(1:2)-CD were investigated in rats. The rats were fasted overnight for 12–16 h with free access to water before the experiment and then anesthetized by intramuscular injection of tiletamine·HCl–zolazepam mixture (1:1 [w/w]; 40 mg/kg). With the animal in the supine position, the abdominal cavity was opened using a midline longitudinal incision, and the intestine (duodenum, jejunum, and ileum) was exposed and subsequently intubated at the two ends with a polypropylene perfusion tube connected to a peristaltic pump (Harvard Apparatus, Holliston, MA, USA). After covering the entire excised area with a cotton pad soaked with warm normal saline, the cannulated intestinal segments were flushed with blank perfusion buffer at 37 °C for 30 min, at a constant flow rate of 0.5 mL/min, to remove residual intestinal contents. Then, drug solutions of PMX, PMX/DL(1:1), PMX/DL(1:2), PMX/DL(1:1)-CD, or PMX/DL(1:2)-CD (equivalent to 100 μg/mL PMX) were perfused through the intestinal lumen at 37 °C and a constant flow rate of 0.2 mL/min. After allowing 30 min to achieve a steady-state, outlet perfusate was collected every 15 min for 120 min. In addition, to assess the reliability of the perfusion study, 100 μg/mL fluorescein diluted in perfusion buffer was perfused separately under the same conditions and the collected samples were analyzed at excitation/emission wavelengths of 494/512 nm using a microplate reader (PerkinElmer multimode plate reader; PerkinElmer, Waltham, MA, USA) as a low-permeability marker. During the experiment, all animals were kept on heated pads under a heat lamp to maintain a normal body temperature. At the end of the experiment, the lengths and radii of the cannulated intestinal segments were measured, taking care to avoid stretching them. The collected samples were then filtered using 0.45-μm PVDF filters and stored at −20 °C before analyses. The outlet concentration of PMX in the perfusate was analyzed by HPLC as described above. In addition, the errors caused by rat intestinal water absorption and secretion during perfusion were corrected by the net water flux (ratio of the […] perfusate flows, Qout/Qin) and the corrected drug concentration in perfusate for each formulation was calculated based on the following equation (i.e. gravimetric method): Cout,corr = Cout × (Qout/Qin), where Cout,corr is the corrected outlet PMX concentration (µg/mL), Cout is the PMX outlet concentration (µg/mL), Qin (mL/min) is the flow rate entering the intestine, and Qout (mL/min) is the measured perfusate exit flow (net weight/15 min, assumed density of 1.0 g/mL) for the specified time interval. After correction, the Peff was calculated using the equation: Peff = Qin/A × ln(Cout,corr/Cin), where A is the intestinal area available for absorption (2πrl) based on its length (l) and radius (r).

CT26.CL25 cells = assay: Immunoblotting of CRT and HMGB-1; assay type: cell-based; conditions: CT26.CL25, 300 µM, 48 h, western blot
Description: CT26.CL25 cells (1 × 10^5 per well) cultured in 6-well plates were treated with 300 µM DL, 300 µM PMX or PMX/DL (equivalent 300 µM PMX) for 48 h. The cells were then lysed in RIPA buffer with protease and phosphatase inhibitors (GenDEPOT, Barker, TX, USA). Each sample was loaded with 20 µg of protein and fractionated using SDS-PAGE (Biosesang, Gyeonggi-do, South Korea), followed by wet transfer to nitrocellulose membrane (Bio-Rad Laboratories, Inc., Hercules, CA, USA). Anti-CRT, anti-HMGB-1, GAPDH rabbit mAb (Cell Signaling Technology, Danvers, MA, USA), and anti-rabbit IgG peroxidase (Sigma–Aldrich) antibodies were used.

[3] = In vivo pharmacokinetic study in rats; design: species or system Sprague–Dawley (SD) rats
Description: The separated plasma samples were kept at −80 °C before analysis and the drug concentration in each plasma sample was determined by LC-MS. […] Agilent Technologies, Santa Clara, CA, USA), conditioned with 500 µL of methanol, followed by 500 µL of deionized water. After loading the standards or samples into the cartridges, the unadsorbed particles were washed out with 500 µL of deionized water and methanol. […] PMX and IS were ionized using electrospray ionization (ESI) source in positive ion mode under a capillary voltage of 3.5 kV, drying gas flow rate of 3.1 L/min, and drying gas temperature of 300 °C. […] Pharmacokinetic parameters were estimated using a non-compartmental model in WinNonlin® software (ver. 5.3; Pharsight Corp., Mountain View, CA, USA). All data were expressed as means ± standard deviations (SDs), or standard errors of the mean (SEMs). Statistical analysis was performed by one-way analysis of variance (ANOVA) followed by Tukey’s multiple comparison test for unpaired data with more than three means. In all analyses, p < .05 was taken to indicate statistical significance.

[4] = read-out: Corrected outlet PMX concentration (Cout,corr)
[5] = read-out: Outlet concentration of PMX (Cout)
[6] = Sprague-Dawley, rat, plasma, IV, 10 mg/kg PMX
[7] = Sprague-Dawley, rat, plasma, oral, 20 mg/kg PMX

Nc1nc2[nH]cc(CCc3ccc(C(=O)N[C@@H](CCC(=O)O)C(=O)O)cc3)c2c(=O)[nH]1 [PMX, Pemetrexed]
Mice alive (survival) [1]: 50%
Papp at 120 min, 100 μg/mL ([2]; rat intestine, n = 4, read-out: Effective permeability (Peff)): 83 ± 4.4 ×10⁻⁶ cm/s
concentration at 15 min [2, 4]: 93.8 ± 2.73 µg/mL
concentration at 15 min [2, 5]: 93.1 ± 1.73 µg/mL
concentration at 30 min [2, 4]: 96 ± 1.36 µg/mL
concentration at 30 min [2, 5]: 93.2 ± 0.04 µg/mL
concentration at 45 min [2, 4]: 94.1 ± 0.46 µg/mL
concentration at 45 min [2, 5]: 92.5 ± 0.51 µg/mL
concentration at 60 min [2, 4]: 95.4 ± 0.19 µg/mL
concentration at 60 min [2, 5]: 94.9 ± 0.19 µg/mL
concentration at 75 min [2, 4]: 95.8 ± 0.87 µg/mL
concentration at 75 min [2, 5]: 94.7 ± 1.19 µg/mL
concentration at 90 min [2, 4]: 96.5 ± 0.54 µg/mL
concentration at 90 min [2, 5]: 95.3 ± 0.87 µg/mL
concentration at 105 min [2, 4]: 95.8 ± 0.27 µg/mL
concentration at 105 min [2, 5]: 94.7 ± 1.92 µg/mL
concentration at 120 min [2, 4]: 96.4 ± 1.52 µg/mL
concentration at 120 min [2, 5]: 94.7 ± 1.82 µg/mL
CRT- and HMGB-1-protein content compared to untreated and DL-treated cells (CT26.CL25 cells): higher
Cmax ([3]; IV, 10 mg/kg PMX): 32.3 ± 1.22 µg/mL
bioavailability ([3]; IV, 10 mg/kg PMX (reference)): 100%
AUC(0-inf) [3, 6]: 25300 ± 3560 ng·h/mL
AUC(0-t) [3, 6]: 25100 ± 3560 ng·h/mL
half-life [3, 6]: 57.2 ± 2.58 min
AUC(0-inf) [3, 7]: 8960 ± 89 ng·h/mL
AUC(0-t) [3, 7]: 3930 ± 380 ng·h/mL
Tmax [3, 7]: 30 min
half-life [3, 7]: 786 ± 109 min
bioavailability ([3]; Sprague-Dawley, rat, plasma, oral, 20 mg/kg PMX, read-out: Bioavailability): 7.8 ± 0.755%
Cmax ([3]; Sprague-Dawley, rat, plasma, oral, 20 mg/kg PMX, read-out: Cmax): 0.579 ± 0.073 µg/mL
